Laboratory results as given in patent US20210308113A1, “METHOD OF ADMINISTERING A […] EFFECTIVE AMOUNT OF 5-[[4-[2-[5-(1-HYDROXYETHYL)PYRIDIN-2-YL]ETHOXY]PHENYL]METHYL]-1,3-THIAZOLIDINE-2,4-DIONE” (MINORYX THERAPEUTICS S.L., priority 2018, published 2021).
pIC50: −log10 of the molar value. Read-outs that look alike come from different tables or passages of the source.

How the values were obtained:
MDA MB231 KO cells = experiment: Seahorse oxygen consumption rate (OCR) in MDA MB231 KO cells (MPC2 deleted); assay type: cell-based; details: MPC activity genetically deleted
Experimental: (§1) To determine whether Compound (1) HCl has any effect on pyruvate-mediated mitochondrial respiration, the extracellular flux analyzer Seahorse was used as described in Compan et al. Seahorse experiments were performed in the following cell lines: HeLa (Cervix cancer cells), A549 (lung cancer cells), wild type MDA MB 231, and MDA MB 231 in which MPC2 has been deleted, leading to inactivation of the MPC (MDA MB231 KO). MDA MB231 cells are epithelial breast cancer cells. Cells were incubated with increasing concentrations of the compounds for one hour at 37° C. before oxygen consumption rate (OCR) measurements. The Seahorse analyzer allowed to measure basal and maximal respiration measured upon depolarization with 1 μM CCCP. […] The KO cells have been deleted of the MPC2 gene and therefore they display no MPC activity. The top panel show a representative experiment of either wild type (WT) or KO cell lines. […] OCR values are expressed as ratios of OCR in the presence of different concentrations of the tested compound over the OCR in PBS alone.

HeLa cells = experiment: Seahorse oxygen consumption rate (OCR) in HeLa cells; assay type: cell-based; details: Homo sapiens, 1 h incubation at 37° C.
Experimental: (§2) To determine whether Compound (1) HCl has any effect on pyruvate-mediated mitochondrial respiration, the extracellular flux analyzer Seahorse was used as described in Compan et al. Seahorse experiments were performed in the following cell lines: HeLa (Cervix cancer cells), A549 (lung cancer cells), wild type MDA MB 231, and MDA MB 231 in which MPC2 has been deleted, leading to inactivation of the MPC (MDA MB231 KO). MDA MB231 cells are epithelial breast cancer cells. Cells were incubated with increasing concentrations of the compounds for one hour at 37° C. before oxygen consumption rate (OCR) measurements. The Seahorse analyzer allowed to measure basal and maximal respiration measured upon depolarization with 1 μM CCCP. Effects of Compound (1) HCl on oxygen consumption rates (OCR) in HeLa cells (FIG. 3A) and A549 cells (FIG. 3B) in a representative experiment of n=3. OCR values are expressed as ratios of OCR in the presence of different concentrations of compounds over the OCR in PBS alone.

adiponectin = experiment: Plasma adiponectin by ELISA in Sprague Dawley rats as a measure of PPAR gamma engagement; assay type: in vivo, rat; details: 7 days, 54 mg/Kg/day, plasma 1 h after last administration, vs vehicle p<0.0001
Experimental: Evaluation of effect of Compound (1) HCl on adiponectin was performed in Sprague Dawley wild type rats as a measure of PPAR gamma engagement. The rats were treated for 7 days with increasing doses of Compound (1) HCl at 54 mg/Kg/day. Plasma were obtained at 1 h after the last Compound (1) HCl administration. Adiponectin levels were measured by ELISA. Results were represented as mean+standard error of the mean of n=8. Data were analyzed by Kruskal-Wallis followed by the Dunn post-hoc test versus the vehicle group (****, p<0.0001).

[1] = Multiple ascending dose (MAD) study, pharmacokinetics in human subjects; assay type: in vivo
Experimental: The mean AUC0-tau ss (% CV) (135 μg·h/mL (20)) and Cmaxss (% CV) (9488 ng/ml (17)) was determined at the steady state day 8 in case 135 mgs. The mean AUC0-tau ss (% CV) (299 μg·h/mL (21) and Cmaxss(% CV) (17200 ng/ml (18) was determined at the steady state day 8 in case 270 mgrs.
Across all ascending dose studies in humans the increase in dose is linearly related to the increase in AUC. Because of the inter subject variability in clearance it is required to select a start dose which is not excessively above the 200 μg·h/mL target AUCs.
The PK data from the MAD study was used to generate a start dose which is most likely no cause toxicity or adverse events in subjects. A dose of 150 mg was chosen as it would give a geometric mean AUCtau of 167 μg·h/mL SD 33 with a 95% confidence interval of 102-232 μg·h/mL. At this dose approximated 75% of patients will be below 200 μg·h/mL and it is unlikely that any patient will exceed 240 μg·h/mL.

[2] = system: MCD diet fed C57BL6/J mice; experiment: 7-week Methionine Choline Deficient (MCD) diet NASH mouse model; assay type: in vivo
Experimental: The preventive effects of Compound (1) HCl was evaluated in a 7-week Methionine Choline Deficient (MCD) diet NASH mouse model (Verdelho Machado et al.). After the acclimation period, C57BL6/J male mice (n=20) were weighed and randomized into 2 homogenous treatment groups based on body weight (n=10/group), put on a MCD diet, and treated BID orally with vehicle or Compound (1) HCl for 7 weeks. Compound (1) HCl was dosed 62.5 mg/kg BID orally by gavage. […] Body weight was measured 3 times/week until the end of the experimental phase. At 7 weeks of diet/treatment, mice were weighed and treated at ˜08:00 am in the morning, then bled (maximal volume/EDTA) at […]. Plasma was then immediately isolated and stored at −80° C. prior to assay plasma ALT and AST. The plasma volume left over was stored at −80° C. for eventual additional analysis. After blood collection, the mice were sacrificed by cervical dislocation under isoflurane anesthesia and exsanguinated with sterile saline. A NAFLD scoring system (NAS) adapted from Kleiner et al. (Hepatology. 41(6):1313-1321 (2005)) using the criteria described in the Table 2 below: Several other histopathological observations described in clinical human cases and originally reported in the NAS scoring system published by Kleiner et al. were not observed in this animal study, such as lipogranuloma, acidophil bodies, megamitochondria, and pigmented macrophages. Therefore, it was elected not to include them in the scoring system described above. An individual mouse NAS total score was calculated for each animal by summing up the score for (1) hepatocellular steatosis, (2) liver inflammation, (3) lobular fibrosis, and (4) hepatocyte ballooning. Histology analysis was performed (oil red 0, H&E and Sirius Red staining) for NAFLD scoring system (NAS) for liver steatosis, inflammation, fibrosis and hepatocyte ballooning.

A549 cells = experiment: Seahorse oxygen consumption rate (OCR) in A549 cells; assay type: cell-based; details: Homo sapiens, 1 h incubation at 37° C.
Experimental: as §2

[3] = target: T1, mitochondrial pyruvate carrier (MPC) (Homo sapiens, UniProt O95563+Q9Y5U8); experiment: BRET assay of MPC inhibitory activity in HEK cells expressing MPC2-Rluc8 and MPC1-Venus; assay type: cell-based
T1 construct: expressed in transfected cells
T1 sequence (O95563 1-127): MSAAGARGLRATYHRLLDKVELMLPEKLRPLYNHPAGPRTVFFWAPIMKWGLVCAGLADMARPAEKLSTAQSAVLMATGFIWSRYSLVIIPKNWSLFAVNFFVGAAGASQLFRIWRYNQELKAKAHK
T1 sequence (Q9Y5U8 1-109): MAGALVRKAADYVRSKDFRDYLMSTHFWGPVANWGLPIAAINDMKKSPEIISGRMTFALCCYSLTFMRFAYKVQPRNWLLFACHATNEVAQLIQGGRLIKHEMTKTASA
Experimental: The MPC is a heterodimer composed of two subunits, MPC1 and MPC2. MPC1 and MPC2 interact to form an active carrier. In the assay, MPC2 was fused to Rluc8 (Donor) and MPC1 to Venus (Acceptor). These chimeric proteins were stably expressed in HEK cells. BRET activity was measured following addition of coelenterazine in the culture medium. Coelenterazine enters into cells and in contact with luciferase Rluc8 emits light, which activates the emission of fluorescence by the Acceptor, provided the distance between the Donor and Acceptor is <[…]. If the distance between Donor and Acceptor is >[…], no BRET activity is measured. The level of BRET activity reflects a change in the conformation of the MPC: it is high when the carrier is in a closed conformation, low when the carrier is at rest and intermediary when it transports pyruvate. In this case, the BRET activity is the mean value between the BRET value when the carrier is at rest (Maximal distance between Donor and Acceptor) and the BRET value when it is closed (Shortest distance between Donor and Acceptor)
A wide range of concentrations of each of the tested compounds was used from 1 nM to 100 μM.

[4] = system: wild type MDA MB231 cells; experiment: Seahorse oxygen consumption rate (OCR) in wild type MDA MB231 cells; assay type: cell-based
Experimental: as §1

## CC(O)c1ccc(CCOc2ccc(CC3SC(=O)NC3=O)cc2)nc1.Cl (stereo not drawn) [Compound (1) HCl, 5-[[4-[2-[5-(1-hydroxyethyl)pyridin-2-yl]ethoxy]phenyl]methyl]-1,3-thiazolidine-2,4-dione hydrochloride]
MDA MB231 KO cells
  effect on oxygen consumption: does not inhibit oxygen consumption
HeLa cells
  pIC50: ~5.30
adiponectin
  plasma adiponectin levels: significantly increased
[1]; human subjects, 135 mg and 270 mg
  change in clearance with time: no change in clearance with time
[1]; human subjects, 135 mg, steady state day 8
  mean Cmaxss: 9488 ng/mL
[1]; human subjects, 270 mg, steady state day 8
  mean Cmaxss: 17200 ng/mL
[1]; human, plasma, oral, start dose 150 mg, generated from MAD PK data, SD 33, 95% CI 102-232, read-out: geometric mean AUCtau
  AUC: 167 µg·h/mL
[1]; in vivo, human subjects, 135 mg, steady state day 8, read-out: mean AUC0-tau ss
  AUC: 135 µg·h/mL
[1]; in vivo, human subjects, 270 mg, steady state day 8, read-out: mean AUC0-tau ss
  AUC: 299 µg·h/mL
[1]; line of best fit of day 8 MAD data, target AUC0-tau ss 200 μg·h/mL
  Cmin ss associated with the target AUC0-tau ss: 5716 ng/mL
[2]; 62.5 mg/kg BID orally, 7 weeks
  hepatic cholesterol levels: did not show a change
[2]; 62.5 mg/kg BID orally, day 14 to day 50
  body weight loss: less severe decline in body weight loss
[2]; 7 weeks
  liver inflammation: total disappearance of inflammation
[2]; 7 weeks, vs vehicle p<0.001
  oil red o staining %: extremely low
  steatosis score: blunted steatosis score
A549 cells
  pIC50: ~5.30
[3]; BRET assay, HEK cells, read-out: IC50 MPC inhibitory activity
  pIC50: 5.39
[4]
  effect on oxygen consumption: inhibits oxygen consumption in a MPC dependent manner

## CC(O)c1ccc(CCOc2ccc(CC3SC(=O)NC3=O)cc2)nc1 (stereo not drawn) [Compound (1), 5-[[4-[2-[5-(1-hydroxyethyl)pyridin-2-yl]ethoxy]phenyl]methyl]-1,3-thiazolidine-2,4-dione]
[1]; humans
  linearity of pharmacokinetics: linear pharmacokinetics
  oral bioavailability: orally bioavailable

## CN(CCOc1ccc(CC2SC(=O)NC2=O)cc1)c1ccccn1 (stereo not drawn) [Rosiglitazone, rosiglitazone, reference compound]
[3]
  pIC50: 5.70
